Test results reported in the supplement of paper PMC10307832.

Assays:
Experiment in all cases: relative viability (nuclei count vs DMSO), 5 days (fraction); higher = more cells survive
[1] = compound: CC(C)C[C@@H](C(=O)N[C@H](C(=O)OC1CCCC1)c1ccccc1)[C@H](O)C(=O)NO [Tosedostat] + COc1cc2c(Oc3ccc(NC(=O)C4(C(=O)Nc5ccc(F)cc5)CC4)cc3F)ccnc2cc1OCCCN1CCOCC1 [Foretinib] (partner 0.25 µM)
Procedure, shortened: (§1)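 Five library-drug doses in √10 steps were combined with a fixed anchor-drug dose, or a single drug was given alone, by pin tool to lung cancer cell lines in 1536-well plates the day after seeding. Nuclei were stained and counted after 5 days. Relative viability is the nuclei count in treated wells over that in vehicle wells, taken as the median of duplicate plates.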

[2] = compound: CC(C)C[C@@H](C(=O)N[C@H](C(=O)OC1CCCC1)c1ccccc1)[C@H](O)C(=O)NO [Tosedostat] + Cc1nc(NC(=O)N2CCC[C@H]2C(N)=O)sc1-c1ccnc(C(C)(C)C(F)(F)F)c1 [Alpelisib] (partner 2 µM)
Procedure, shortened: as §1

[3] = compound: CC(C)C[C@@H](C(=O)N[C@H](C(=O)OC1CCCC1)c1ccccc1)[C@H](O)C(=O)NO [Tosedostat] + O=C(CCCCCCC(=O)Nc1ccccc1)NO [Vorinostat] (partner 1 µM)
Procedure, shortened: as §1

[4] = compound: CC1=NN=C(O1)C2=NN=C(C=C2)N3CCC(CC3)OC4=C(C=CC(=C4)F)Cl + O=C(CCCCCCC(=O)Nc1ccccc1)NO [Vorinostat] (partner 1 µM)
Procedure, shortened: as §1

## UMC-11
[1]; first compound 0.02 µM
  relative viability: 1.22
[1]; first compound 0.06325 µM
  relative viability: 0.969
[1]; first compound 0.2 µM
  relative viability: 1.02
[1]; first compound 0.6325 µM
  relative viability: 1.09
[1]; first compound 2 µM
  relative viability: 1.03
[2]; first compound 0.02 µM
  relative viability: 0.962
[2]; first compound 0.06325 µM
  relative viability: 0.87
[2]; first compound 0.2 µM
  relative viability: 0.957
[2]; first compound 0.6325 µM
  relative viability: 0.942
[2]; first compound 2 µM
  relative viability: 1.03
[3]; first compound 0.02 µM
  relative viability: 0.459
[3]; first compound 0.06325 µM
  relative viability: 0.459
[3]; first compound 0.2 µM
  relative viability: 0.372
[3]; first compound 0.6325 µM
  relative viability: 0.388
[3]; first compound 2 µM
  relative viability: 0.391
[4]; first compound 0.253 µM
  relative viability: 0.361
[4]; first compound 0.8 µM
  relative viability: 0.351
[4]; first compound 2.53 µM
  relative viability: 0.431
[4]; first compound 8 µM
  relative viability: 0.383
